How the values were obtained:
S. pneumoniae = experiment: Biological activity against bacterial strains: S. pneumoniae; type: cell-based, Streptococcus pneumoniae; set-up: Biological Activity, S. pneumoniae ATCC6301 / Biological Activity, S. pneumoniae ATCC700671 / Biological Activity, S. pneumoniae ATCC700676* / Biological Activity, S. pneumoniae ATCC700677* / Biological Activity, S. pneumoniae ATCC700905* / Biological Activity, S. pneumoniae ATCC700906* / Biological Activity, S. pneumoniae ATCC49619: unit not given here; conditions: for Biological Activity, S. pneumoniae ATCC6301: strain ATCC6301; for Biological Activity, S. pneumoniae ATCC49619: strain ATCC49619; for Biological Activity, S. pneumoniae ATCC700671: strain ATCC700671; for Biological Activity, S. pneumoniae ATCC700676*: strain ATCC700676, macrolide resistant strain; for Biological Activity, S. pneumoniae ATCC700677*: strain ATCC700677, macrolide resistant strain; for Biological Activity, S. pneumoniae ATCC700905*: strain ATCC700905, macrolide resistant strain; for Biological Activity, S. pneumoniae ATCC700906*: strain ATCC700906, macrolide resistant strain
S. aureus = experiment: Biological activity against bacterial strains: S. aureus; type: cell-based, Staphylococcus aureus; set-up: unit not given here; conditions: for Biological Activity, S. aureus ATCC6538p: strain ATCC6538p; for Biological Activity, S. aureus ATCC14154*: strain ATCC14154, macrolide resistant strain; for Biological Activity, S. aureus ATCC29213: strain ATCC29213; for Biological Activity, S. aureus ATCC33591*: strain ATCC33591, macrolide resistant strain; for Biological Activity, S. aureus ATCCBAA-39*: strain ATCCBAA-39, macrolide resistant strain; for Biological Activity, S. aureus ATCCBAA-44*: strain ATCCBAA-44, macrolide resistant strain
S. epidermidis = experiment: Biological activity against bacterial strains: S. epidermidis; type: cell-based, Staphylococcus epidermidis; conditions: strain ATCC12228
E. faecalis = experiment: Biological activity against bacterial strains: E. faecalis; type: cell-based, Enterococcus faecalis; conditions: strain ATCC51575

| SMILES | Biological Activity, S. pneumoniae ATCC6301 (S. pneumoniae) | Biological Activity, S. pneumoniae ATCC49619 (S. pneumoniae) | Biological Activity, S. pneumoniae ATCC700671 (S. pneumoniae) | Biological Activity, S. pneumoniae ATCC700676* (S. pneumoniae) | Biological Activity, S. pneumoniae ATCC700677* (S. pneumoniae) | Biological Activity, S. pneumoniae ATCC700905* (S. pneumoniae) | Biological Activity, S. pneumoniae ATCC700906* (S. pneumoniae) | Biological Activity, S. aureus ATCC6538p (S. aureus) | Biological Activity, S. aureus ATCC14154* (S. aureus) | Biological Activity, S. aureus ATCC29213 (S. aureus) | Biological Activity, S. aureus ATCC33591* (S. aureus) | Biological Activity, S. aureus ATCCBAA-39* (S. aureus) | Biological Activity, S. aureus ATCCBAA-44* (S. aureus) | Biological Activity, S. epidermidis ATCC12228 (S. epidermidis) | Biological Activity, E. faecalis ATCC51575 (E. faecalis) |
| --- | --- | --- | --- | --- | --- | --- | --- | --- | --- | --- | --- | --- | --- | --- | --- |
| CCC1OC(=O)CC(O)C(C)C(OC2OC(C)C(O)C(N(C)C)C2O)C(CCN2CC(C)CC(C)C2)CC(C)C(=NOCCCOc2ccc3ncccc3c2)C=CC(C)=CC1COC1OC(C)C(O)C(OC)C1OC (single isomer, unassigned) [Compound L] | 0.01 | 0.025 | 0.01 | 0.049 | 0.025 | 0.098 | >12.5 | 0.20 | 0.20 | 0.20 | >12.5 | >12.5 | >12.5 | 0.20 | >12.5 |
| CCC1OC(=O)CC(O)C(C)C(OC2OC(C)C(O)C(N(C)C)C2O)C(CC=O)CC(C)C(=NOCC=Cc2cnc3ccccc3c2)C=CC(C)=CC1CO (single isomer, unassigned) [Compound F] | 0.025 | 0.025 | 0.049 | 0.049 | >12.5 | 0.049 | >12.5 | 0.098 | 0.39 | 0.39 | >12.5 | >12.5 | >12.5 | 0.049 | >12.5 |
| CCC1OC(=O)CC(O)C(C)C(OC2OC(C)C(O)C(N(C)C)C2O)C(CC=O)CC(C)C(=NOCC=Cc2ccc3nccnc3c2)C=CC(C)=CC1CO (stereo not drawn) [Compound H] | 0.025 | 0.025 | 0.049 | 0.049 | >12.5 | 0.049 | >12.5 | 0.20 | 0.39 | 0.39 | >12.5 | >12.5 | >12.5 | 0.20 | >12.5 |
| CCC1OC(=O)CC(O)C(C)C(OC2OC(C)C(O)C(N(C)C)C2O)C(CC=O)CC(C)C(=NOCCCCOc2ccc3ncccc3c2)C=CC(C)=CC1CO (stereo not drawn) [Compound B] | 0.025 | 0.01 | 0.025 | 0.025 | 0.39 | 0.025 | >12.5 | 0.20 | 0.78 | 0.78 | >12.5 | >12.5 | >12.5 | 0.20 | >12.5 |
| CC[C@H]1OC(=O)C[C@@H](O)[C@H](C)[C@@H](OC2OC(C)C(O)C(N(C)C)C2O)[C@@H](CC=O)C[C@@H](C)C(=N/OCCOc2ccccc2)/C=C/C(C)=C/C1CO (stereo partly drawn) [Compound IIa] | 0.20 | 0.20 | 0.39 | 0.20 | 3.12 | 0.39 | >12.5 | 0.78 | 1.56 | 1.56 | >12.5 | >12.5 | >12.5 | 1.56 | >12.5 |
| CCC1OC(=O)CC(O)C(C)C(OC2OC(C)C(O)C(N(C)C)C2O)C(CCN2CC(C)CC(C)C2)CC(C)C(=NOCc2ccc(F)cc2)C=CC(C)=CC1COC1OC(C)C(O)C(OC)C1OC (single isomer, unassigned) [Compound P] | 0.39 | 0.78 | 0.78 | 3.12 | 6.25 | 3.12 | 12.5 | 0.39 | 6.25 | 0.78 | >12.5 | >12.5 | >12.5 | 0.78 | >12.5 |
| CCC1OC(=O)CC(O)C(C)C(OC2OC(C)C(O)C(N(C)C)C2O)C(CCN2CC(C)CC(C)C2)CC(C)C(=NOCC(=O)N2CCN(c3ccccc3)CC2)C=CC(C)=CC1CO (stereo not drawn) [Compound X] | 0.049 | 0.049 | 0.098 | 1.56 | >12.5 | 0.78 | >12.5 | 0.39 | 3.12 | 1.56 | >12.5 | >12.5 | >12.5 | 0.78 | >12.5 |
| CCC1OC(=O)CC(O)C(C)C(OC2OC(C)C(O)C(N(C)C)C2O)C(CCN2CC(C)CC(C)C2)CC(C)C(=NOCCCCOc2ccc3ncccc3c2)C=CC(C)=CC1CO (single isomer, unassigned) [Compound U] | 6.25 | 12.5 | 12.5 | >12.5 | >12.5 | 12.5 | >12.5 | >12.5 | >12.5 | >12.5 | >12.5 | >12.5 | >12.5 | >12.5 | >12.5 |
